EP4806904A1, “POLYPEPTIDE AND USE THEREOF” (Sichuan Gooddoctor Panxi Pharmaceutical Co. Ltd, priority 2023, dated 2026)
Where a SMILES comes first, the peptide text is derived from it. [ ]: non-standard residue; d: D form.

What was measured:
[1] = system: neural stem cell line C17.2; assay: Proliferation of neural stem cell line C17.2, BrdU, high-content imaging; assay type: cell-based; conditions: 100 µg/mL, 48 h; for number of BrdU positive cells: vs blank control group, in words; for Proliferation-promoting results: percentage of BrdU-positive cells, significance vs blank control group
Description: • (1) C17.2 cells were seeded in 96-well plates at a concentration of 1500 cells/100 µL/well. After overnight culture for cell adherence, the cells were treated with drugs; • (2) Drug treatment was applied. The final concentration of the polypeptide of the invention was 100 µg/mL. Meanwhile, butylphthalide (NBP, 5 µM) was set as the positive control. The cells were cultured in the incubator for another 48 h; • (3) BrdU was added at 44 h of treatment to a final concentration of 10 µM. Immunofluorescence staining was performed 4 h later, and the percentage of BrdU-positive cells was statistically analyzed using a high-content cell imaging analysis system.

[2] = system: primary neural stem cells (NSCs); assay: Differentiation of primary neural stem cells, βIII-tubulin fluorescence and Neurite Outgrowth Assay; assay type: cell-based, SD rats; conditions: 100 µg/mL; for Longest neurite length / Neurite initiation points (branches) / Number of neurite terminals / Total neurite length / mean fluorescence intensity of the neuronal marker protein βIII-tubulin / Average fluorescence intensity / neurite outgrowth (total neurite length, maximum neurite length, neurite terminals, neurite initiation points): 4 days; for Longest neurite length / Neurite initiation points (branches) / Number of neurite terminals / Total neurite length / Average fluorescence intensity: significance vs blank control group; for mean fluorescence intensity of the neuronal marker protein βIII-tubulin: vs blank control group; for mean fluorescence intensity of the neuronal marker protein βIII-tubulin / neurite outgrowth (total neurite length, maximum neurite length, neurite terminals, neurite initiation points): in words; for differentiation of NSCs into neuronal cells: conclusion based on the results of the two analytical methods; for Average fluorescence intensity: βIII-tubulin; for neurite outgrowth (total neurite length, maximum neurite length, neurite terminals, neurite initiation points): Neurite Outgrowth Assay
Description: This part of the experiment requires feeding male and female rats in advance, then extracting hippocampal neural stem cells from newborn SD rats within 24 h of birth, culturing them to P3 for identification, and then using them for experiments. • (1) Extraction and culture of primary neural stem cells (NSCs) • (2) NSCs that have been passaged to P3 and have good viability were seeded in differentiation medium (2% FBS+DMEM/F12 1:1 medium) in 48-well plates with a cell concentration of 5×10^4 cells/mL per well. After overnight culture for cell adherence, the cells were treated with drugs; • (3) Drug treatment was applied. The final concentration of the polypeptide of the invention was 100 µg/mL. Meanwhile, nerve growth factor (NGF, 50 ng/mL) was set as the positive control, and the cells were cultured in the incubator for another 4 days; • (4) Immunofluorescence staining (primary antibody βIII-tubulin) was performed after 4 days of treatment. The average fluorescence intensity of βIII-tubulin was analyzed and the Neurite Outgrowth Assay was performed using a high-content cell imaging analysis system.

[3] = system: Brain microvascular endothelial cells (BMECs) and brain microvascular smooth muscle cells (BMVSMCs); assay: In vitro angiogenesis assay, BMEC/BMVSMC co-culture on matrigel; assay type: cell-based, mouse; conditions: 0.1 mg/L, 48 h; for Cell count / Branch length / Number of intersections: significance vs blank control group; for cell proliferation / angiogenesis-promoting effects: vs normal group, in words
Description: First, mouse brain microvascular pellets were obtained by differential centrifugation. Brain microvascular endothelial cells (BMECs) and brain microvascular smooth muscle cells (BMVSMCs) were isolated by digestion with collagenase II, respectively, and cultured in a cell incubator with 5% CO2 at 37°C . Cells at passages 3-6 in good growth condition and logarithmic growth phase were selected for the in vitro angiogenesis assay.
One night before the experiment, the high-concentration matrigel was transferred from a -20°C or -80°C refrigerator to a 4°C refrigerator and allowed to thaw slowly overnight in the 4°C refrigerator. Pipette tips required for the formal experiment were sterilized in advance and pre-cooled in a 4°C refrigerator for subsequent use.
On the day of the experiment, the matrigel was added to a 96-well plate 1 h in advance and placed in a 37°C cell incubator until it solidified. Subsequently, the cells were washed 2 times with 2 mL of PBS buffer, followed by digestion with 0.25% trypsin to obtain EC and VSMC pellets, respectively, and cell counting was performed. A uniform cell suspension containing 5×10^3 BMVSMCs and 1×10^3 BMECs per well was then seeded into the 96-well plate pre-coated with the matrigel, and cultured in a 37°C, 5% CO2 cell incubator for 3 days.
During the culture period, tube formation was observed daily. The medium was changed on day 4, followed by treatment with the polypeptide of the invention at 0.1 mg/L or VEGFA at 10/15/20 ng/L for 48 h, respectively.
On day 5, the cell nuclei and live cells were labeled with Hoechst 33342 and Calcein AM, respectively. High-content brightfield and fluorescence imaging were then performed using a high-content screening system. Finally, angiogenesis in each treatment group was analyzed using the Angiogenesis Analyzer plugin for ImageJ, and statistical analysis was carried out with GraphPad Prism 10.

[4] = system: primary neural stem cells (NSCs); assay: Differentiation of primary neural stem cells, MAP-2/GFAP immunofluorescence (Example 2.2); assay type: cell-based, SD rats; conditions: 0.02, 0.1, 0.5 mg/mL, 4 days, vs control group
Description: (§1) This part of the experiment requires feeding male and female rats in advance, then extracting hippocampal neural stem cells from newborn SD rats within 24 h of birth, culturing them to P3 for identification, and then using them for experiments.
(§2) Extraction and culture of primary neural stem cells (NSCs): Hippocampal neural stem cells were extracted from neonatal SD […] 24 h after birth. The procedure is as follows: first, the neonatal rats were disinfected by soaking in 75% ethanol, then transferred to a biological safety cabinet for manipulation under aseptic conditions. After the entire brain was removed from the neonatal mouse, it was immediately placed in cold D-Hanks solution to remove non-neural tissue. Under a dissecting microscope, the meninges were carefully removed and the hippocampal structures on both sides were separated. The tissue was mechanically broken into flocculent pieces with a scalpel, pipetted, and the tissue sample was transferred to a 15 mL centrifuge tube and centrifuged at 800 rpm for 5 min. […]
Medium-sized neurospheres cultured at P3-P4 were collected, centrifuged at 800 rpm for 5 min, and the supernatant was discarded. […] Subsequently, the images were observed and collected under a fluorescence microscope, and the mean fluorescence intensities of MAP-2 and GFAP were statistically analyzed respectively.

[5] = system: primary neural stem cells (NSCs); assay: Proliferation of primary neural stem cells, BrdU incorporation (Example 2.1); assay type: cell-based, SD rats; conditions: 0.02, 0.1, 0.5 mg/mL, 48 h, vs control group
Description: as §1
as §2, with “separated.” for “separated. The tissue was mechanically broken into flocculent pieces with a scalpel, pipetted, and the tissue sample was transferred to a 15 mL centrifuge tube and centrifuged at 800 rpm for 5 min.”
Medium-sized neurospheres formed from P3-P4 generations were centrifuged at 800 rpm for 5 min, the supernatant was discarded, a small amount of complete medium was added and pipetted to form a single-cell suspension, the cells were resuspended, counted, and seeded at 1.0 x 10^5 cells/mL into 24-well plates coated with 25 µg/mL PLL. […] Immunofluorescence staining was performed 4 h later, and the cells were then observed and photographed under a fluorescence microscope. The BrdU-positive cell rate was statistically analyzed.

[6] = system: tMCAO rats; assay: Cortical index 14 days after ischemia-reperfusion injury; assay type: in vivo, SD rats; conditions: 10 mg/kg, tail vein, treatment for 14 days, P<0.01
Description: (§3) Experimental animals, model establishment, grouping and drug administration are the same as in Example 5.
(§4) The cortical index was calculated for each group of rats 14 days after ischemia-reperfusion injury. tMCAO rats were treated with the polypeptide compound 1 of the invention for 14 days, and the expression of PSD95 and SYP was detected by Western blot.

[7] = system: PSD95 and SYP; assay: Western blot of PSD95 and SYP in hippocampus and cortex; assay type: in vivo, SD rats; conditions: treatment for 14 days, vs Vehicle group, P<0.05
Description: as §3, §4

Compound	number of BrdU positive cells [1]	Longest neurite length [2]	Neurite initiation points (branches) [2]	Number of neurite terminals [2]	Total neurite length [2]	mean fluorescence intensity of the neuronal marker protein βIII-tubulin [2]	differentiation of NSCs into neuronal cells [2]	Average fluorescence intensity [2]	Cell count [3]	cell proliferation [3]	Proliferation-promoting results [1]	neurite outgrowth (total neurite length, maximum neurite length, neurite terminals, neurite initiation points) [2]	Branch length [3]	Number of intersections [3]	angiogenesis-promoting effects [3]	other results
CC(C)C[C@H](NC(=O)[C@@H](NC(=O)CNC(=O)[C@@H]1CCCN1C(=O)[C@H](C)NC(=O)[C@@H]1CCCN1C(=O)[C@@H](CC(C)C)NC(=O)[C@H](C)N)[C@@H](C)O)C(=O)O [Compound 3, H-Ala-D-Leu-Pro-Ala-Pro-Gly-Thr-Leu-OH] (H-A[dL]PAPGTL-OH)	tendency to increase	** (**p < 0.01)	* (*p < 0.05)	* (*p < 0.05)	** (**p < 0.01)	significant increase	promote the differentiation of NSCs into neuronal cells with stable effects	* (*p < 0.05)	* (*p < 0.05)	only promoted cell proliferation						
Ac-ALPAPGTL-NH2 [Compound 11, Ac-Ala-Leu-Pro-Ala-Pro-Gly-Thr-Leu-NH2]	significant increase	** (**p < 0.01)	*** (***p < 0.001)	** (**p < 0.01)	*** (***p < 0.001)						** (**p < 0.01)	promote neurite outgrowth	* (*p < 0.05)	* (*p < 0.05)	exhibited angiogenesis-promoting effects	
CC(C)C[C@H](NC(=O)[C@@H](NC(=O)CNC(=O)[C@H]1CCCN1C(=O)[C@H](C)NC(=O)[C@@H]1CCCN1C(=O)[C@H](CC(C)C)NC(=O)[C@H](C)N)[C@@H](C)O)C(=O)O [Compound 6, H-Ala-Leu-Pro-Ala-D-Pro-Gly-Thr-Leu-OH] (H-ALPA[dP]GTL-OH)		* (*p < 0.05)	* (*p < 0.05)		* (*p < 0.05)						* (*p < 0.05)	tendency to promote neurite outgrowth	* (*p < 0.05)	** (**p < 0.01)	exhibited angiogenesis-promoting effects	
H-ALPAAGTL-OH [Compound 17, H-Ala-Leu-Pro-Ala-Ala-Gly-Thr-Leu-OH]						tendency to enhance			** (**p < 0.01)	only promoted cell proliferation	** (**p < 0.01)					
H-ALPAPGTL-OH [Compound 1, H-Ala-Leu-Pro-Ala-Pro-Gly-Thr-Leu-OH]		*** (***p < 0.001)	*** (***p < 0.001)	*** (***p < 0.001)	** (**p < 0.01)	significant increase	promote the differentiation of NSCs into neuronal cells with stable effects	** (**p < 0.01)	*** (***p < 0.001)			promote neurite outgrowth	** (**p < 0.01)	* (*p < 0.05)	exhibited angiogenesis-promoting effects	mean fluorescence intensity of GFAP [4]: significantly elevated; mean fluorescence intensity of MAP-2 [4]: significantly elevated; percentage of BrdU-positive cells [5]: significantly increased; cortical index [6]: significantly increased; expression of PSD95 [7]: significantly increased; expression of SYP [7]: significantly increased
